Experimental data from patent US9062046B2, “Substituted imidazoquinoline derivatives as kinase inhibitors” (Piramal Enterprises Limited, priority 2011, dated 2015).

Tests used:
PC3 (prostate cell line) = experiment: Cytotoxicity assay (propidium iodide assay), PC3; format: cell-based; settings: PC3 cells, 48 h treatment
Summary of the method: (§1)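 A2780 and PC3 cells, 3000/well, were treated with compound for 48 h after 18-24 h attachment. After washing, propidium iodide 7 μg/ml was added, followed by freeze-thaw at −70 °C and a fluorescence read. Viability was taken relative to untreated wells, with IC50 derived from the curves.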

[1] = tested on: A2780 (ovarian cell line); experiment: Cytotoxicity assay (propidium iodide assay), A2780; format: cell-based; settings: A2780 cells, 48 h treatment
Summary of the method: as §1

p110α = biological target: T1, p110α (Homo sapiens, UniProt P42336); experiment: p110α radioactive lipid kinase assay (PI3Kα); format: biochemical; settings: 25 μM ATP, 2 h at RT, read-out: IC50 in μM (PI3 kinase activity)
T1 construct: purchased Upstate Millipore
T1 sequence (P42336 whole entry, species assumed): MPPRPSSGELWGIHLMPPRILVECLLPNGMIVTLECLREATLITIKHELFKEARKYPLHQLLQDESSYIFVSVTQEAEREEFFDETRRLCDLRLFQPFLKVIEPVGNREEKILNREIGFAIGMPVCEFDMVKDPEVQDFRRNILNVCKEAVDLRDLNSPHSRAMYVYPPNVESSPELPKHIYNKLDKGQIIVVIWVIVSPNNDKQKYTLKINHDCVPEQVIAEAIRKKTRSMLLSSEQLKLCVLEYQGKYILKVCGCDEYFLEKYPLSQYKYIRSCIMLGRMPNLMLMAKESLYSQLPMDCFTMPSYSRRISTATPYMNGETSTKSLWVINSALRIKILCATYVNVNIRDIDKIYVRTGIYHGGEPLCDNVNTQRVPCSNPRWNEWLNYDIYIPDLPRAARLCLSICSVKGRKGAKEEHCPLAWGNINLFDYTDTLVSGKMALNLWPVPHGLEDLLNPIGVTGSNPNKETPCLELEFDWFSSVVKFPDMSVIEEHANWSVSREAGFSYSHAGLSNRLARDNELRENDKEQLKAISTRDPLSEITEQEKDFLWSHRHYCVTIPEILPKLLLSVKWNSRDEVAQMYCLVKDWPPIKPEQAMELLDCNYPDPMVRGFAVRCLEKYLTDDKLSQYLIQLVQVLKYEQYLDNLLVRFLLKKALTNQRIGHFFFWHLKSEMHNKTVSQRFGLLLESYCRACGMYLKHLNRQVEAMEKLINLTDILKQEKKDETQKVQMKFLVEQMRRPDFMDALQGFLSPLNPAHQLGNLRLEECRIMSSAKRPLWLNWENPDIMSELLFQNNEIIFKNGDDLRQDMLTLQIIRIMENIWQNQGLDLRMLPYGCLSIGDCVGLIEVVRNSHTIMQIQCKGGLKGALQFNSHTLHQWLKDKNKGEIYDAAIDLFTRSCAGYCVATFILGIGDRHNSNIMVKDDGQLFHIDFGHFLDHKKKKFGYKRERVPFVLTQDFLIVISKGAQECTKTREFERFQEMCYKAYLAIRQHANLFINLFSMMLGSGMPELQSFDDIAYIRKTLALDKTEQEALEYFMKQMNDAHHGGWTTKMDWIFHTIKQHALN
T1 sequence (P27986 whole entry partner, species assumed): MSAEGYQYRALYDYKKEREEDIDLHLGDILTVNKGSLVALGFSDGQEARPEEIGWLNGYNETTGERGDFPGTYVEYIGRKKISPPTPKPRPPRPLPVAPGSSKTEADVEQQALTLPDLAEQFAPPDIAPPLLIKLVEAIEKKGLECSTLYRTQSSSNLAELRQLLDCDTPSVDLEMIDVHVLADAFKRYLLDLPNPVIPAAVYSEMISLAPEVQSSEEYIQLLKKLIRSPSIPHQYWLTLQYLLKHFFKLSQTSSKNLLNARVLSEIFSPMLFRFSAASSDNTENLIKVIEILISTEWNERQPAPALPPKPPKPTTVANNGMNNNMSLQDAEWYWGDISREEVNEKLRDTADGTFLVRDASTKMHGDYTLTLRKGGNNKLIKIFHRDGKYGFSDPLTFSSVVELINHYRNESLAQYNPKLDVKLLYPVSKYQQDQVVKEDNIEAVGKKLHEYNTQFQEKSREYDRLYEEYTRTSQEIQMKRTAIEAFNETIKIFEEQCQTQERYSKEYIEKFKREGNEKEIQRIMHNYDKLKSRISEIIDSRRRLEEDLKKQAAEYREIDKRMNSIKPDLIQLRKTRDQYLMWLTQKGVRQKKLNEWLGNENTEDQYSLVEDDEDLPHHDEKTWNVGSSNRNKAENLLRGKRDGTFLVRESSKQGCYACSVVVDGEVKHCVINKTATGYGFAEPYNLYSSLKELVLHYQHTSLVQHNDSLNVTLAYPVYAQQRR
Method: Protocol for Kinase Assay (PI3Kα)
p110α Radioactive Lipid Kinase Assay
The assay was designed as in the reference, Journal of Biomolecular Screening, 2002, Vol. 7, No. 5, 441-450, the disclosure of which is incorporated by reference for the teaching of the assay.
The p110α biochemical assay was performed using a radioactive assay measuring the incorporation of ^32P into the p110α substrate, phosphatidylinsoitol (PI). For the generation of IC50 curves, the reaction was performed in a 96-well MaxiSorp plates. Plates were pre-coated with 4 μg/well of a 1:1 ratio of phosphatidylinositol (PI: Avanti #840042C) and phosphatidylserine (PS: Avanti #840032C) diluted in CHCl3. Equal amount of p110α (Upstate Millipore) protein was added to each well, containing reaction buffer (50 mM MOPSO pH7.0, 100 mM NaCl, 4 mM MgCl2, 0.1% (w/v) BSA) whereas, for negative control, only reaction buffer was added. Test compounds (referred to by example nos. in the following table 1) dissolved in DMSO were treated at nine-point dose responses. Reactions were initiated by the addition of 25 μM ATP solution containing 50 μCi/ml [γ-^32P]-ATP and incubated at RT for 2 h with gentle shaking. Reactions were finally terminated by the addition of 50 mM EDTA stock solution. Plates were washed 3 times with TBS buffer. The plates were air dried, Microscint 0 (Perkin Elmer) was added to each well and the plates were sealed. The radioactivity incorporated into the immobilized PI substrate was determined with Top Count (Perkin Elmer). Inhibition was calculated using the following equation: % inhibition=(Dcpm−Tcpm)/(Dcpm)×100 • Tcpm=^32P-cpm in presence of test compounds • Dcpm=^32P-cpm in DMSO control (enzyme control deducted) Results: IC50 values of test compounds for PI3 kinase activity is indicated in Table 1.

| IC50 (p110α) | Compound | IC50 (PC3 (prostate cell line); Homo sapiens, PC-3) | IC50 ([1]; Homo sapiens) | inhibition at 1 µM (PC3 (prostate cell line); Homo sapiens, PC-3, 1 μM) | inhibition at 1 µM ([1]; Homo sapiens, 1 μM) | % Inhibition at 1 μM, PC3 (PC3 (prostate cell line); 1 μM) | % Inhibition at 1 μM, A2780 ([1]; 1 μM) |
| --- | --- | --- | --- | --- | --- | --- | --- |
| ≤ 0.01 µM | Cn1c(=NC#N)n(-c2ccc(C(C)(C)C#N)nc2)c2c3cc(-c4ccc5cc[nH]c5c4)ccc3ncc21 [Example 79, N-(1-(6-(2-cyanopropan-2-yl)pyridin-3-yl)-8-(1H-indol-6-yl)-3-methyl-1H-imidazo[4,5-c]quinolin-2(3H)-ylidene)cyanamide] | ≤ 0.5 µM | ≤ 0.5 µM | – | – | – | – |
| ≤ 0.01 µM | COc1ncc(-c2ccc3ncc4c(c3c2)n(-c2ccc(C(C)(C)C#N)nc2)c(=NC#N)n4C)cc1NS(=O)(=O)c1ccccc1 [Example 125, N-(5-(2-(cyanoimino)-1-(6-(2-cyanopropan-2-yl)pyridin-3-yl)-3-methyl-2,3-dihydro-1H-imidazo[4,5-c]quinolin-8-yl)-2-methoxypyridin-3-yl)benzenesulfonamide] | ≤ 0.5 µM | ≤ 0.5 µM | – | – | – | – |
| 0.01 to 1 µM | COc1ncc(-c2ccc3ncc4c(c3c2)n(-c2ccc(C(C)(C)C#N)nc2)c(=NC#N)n4C)cc1N [Example 95, N-(8-(5-amino-6-methoxypyridin-3-yl)-1-(6-(2-cyanopropan-2-yl)pyridin-3-yl)-3-methyl-1H-imidazo[4,5-c]quinolin-2(3H)-ylidene)cyanamide] | ≤ 0.5 µM | ≤ 0.5 µM | – | – | – | – |
| 0.01 to 1 µM | Cn1c(=NC#N)n(-c2ccc(C(C)(C)C#N)nc2)c2c3cc(-c4ccc(N5CCCCC5)nc4)ccc3ncc21 [Example 76, N-(1-(6-(2-cyanopropan-2-yl)pyridin-3-yl)-3-methyl-8-(6-(piperidin-1-yl)pyridin-3-yl)-1H-imidazo[4,5-c]quinolin-2(3H)-ylidene)cyanamide] | 0.5 to 2 µM | ≤ 0.5 µM | – | – | – | – |
| 0.01 to 1 µM | Cc1cc(-c2ccc3ncc4c(c3c2)n(-c2ccc(C(C)(C)C#N)nc2)c(=NC#N)n4C)cnc1F [Example 78, N-(1-(6-(2-cyanopropan-2-yl)pyridin-3-yl)-8-(6-fluoro-5-methylpyridin-3-yl)-3-methyl-1H-imidazo[4,5-c]quinolin-2(3H)-ylidene)cyanamide] | ≤ 0.5 µM | ≤ 0.5 µM | – | – | – | – |
| 0.01 to 1 µM | Cn1c(=NC#N)n(-c2ccc(C(C)(C)C#N)nc2)c2c3cc(-c4ccc5cn[nH]c5c4)ccc3ncc21 [Example 77, N-(1-(6-(2-cyanopropan-2-yl)pyridin-3-yl)-8-(1H-indazol-6-yl)-3-methyl-1H-imidazo[4,5-c]quinolin-2(3H)-ylidene)cyanamide] | ≤ 0.5 µM | ≤ 0.5 µM | – | – | – | – |

Further lines, the compound ahead of its results:

| Compound | IC50 (p110α) | IC50 (PC3 (prostate cell line); Homo sapiens, PC-3) | IC50 ([1]; Homo sapiens) | inhibition at 1 µM (PC3 (prostate cell line); Homo sapiens, PC-3, 1 μM) | inhibition at 1 µM ([1]; Homo sapiens, 1 μM) | % Inhibition at 1 μM, PC3 (PC3 (prostate cell line); 1 μM) | % Inhibition at 1 μM, A2780 ([1]; 1 μM) |
| --- | --- | --- | --- | --- | --- | --- | --- |
| Cn1c(=NC#N)n(-c2ccc(C(C)(C)C#N)nc2)c2c3cc(-c4cncc(C(F)(F)F)c4)ccc3ncc21 [Example 70] | ≤ 0.01 µM | ≤ 0.5 µM | ≤ 0.5 µM | – | – | – | – |
| Cn1c(=NC#N)n(-c2ccc(C(C)(C)C#N)nc2)c2c3cc(-c4cnc(N)c(C(F)(F)F)c4)ccc3ncc21 [Example 5, N-(8-(6-amino-5-(trifluoromethyl)pyridin-3-yl)-1-(6-(2-cyanopropan-2-yl)pyridin-3-yl)-3-methyl-1H-imidazo[4,5-c]quinolin-2(3H)-ylidene)cyanamide] | ≤ 0.01 µM | ≤ 0.5 µM | ≤ 0.5 µM | – | – | – | – |
| Cn1c(=NC#N)n(-c2ccc(C(C)(C)C#N)nc2)c2c3cc(-c4cnc(N)nc4)ccc3ncc21 [Example 75, N-(8-(2-aminopyrimidin-5-yl)-1-(6-(2-cyanopropan-2-yl)pyridin-3-yl)-3-methyl-1H-imidazo[4,5-c]quinolin-2(3H)-ylidene)cyanamide] | 0.01 to 1 µM | ≤ 0.5 µM | ≤ 0.5 µM | – | – | – | – |
| Cn1c(=NC#N)n(-c2ccc(C(C)(C)C#N)nc2)c2c3cc(-c4ccc5[nH]ccc5c4)ccc3ncc21 [Example 73, N-(1-(6-(2-cyanopropan-2-yl)pyridin-3-yl)-8-(1H-indol-5-yl)-3-methyl-1H-imidazo[4,5-c]quinolin-2(3H)-ylidene)cyanamide] | ≤ 0.01 µM | ≤ 0.5 µM | ≤ 0.5 µM | – | – | – | – |
| Cn1c(=NC#N)n(-c2ccc(C(C)(C)C#N)nc2)c2c3cc(-c4ccc(C(F)(F)F)cc4)ccc3ncc21 [Example 68, N-(1-(6-(2-cyanopropan-2-yl)pyridin-3-yl)-3-methyl-8-(4-(trifluoromethyl)phenyl)-1H-imidazo[4,5-c]quinolin-2(3H)-ylidene)cyanamide] | – | – | – | < 30% | 30 to 70% | – | – |
| CN(C)c1ncc(-c2ccc3ncc4c(c3c2)n(-c2ccc(C(C)(C)C#N)cc2)c(=NC#N)n4C)cc1C(F)(F)F [Example 129, N-(1-(4-(2-cyanopropan-2-yl)phenyl)-8-(6-(dimethylamino)-5-(trifluoromethyl)pyridin-3-yl)-3-methyl-1H-imidazo[4,5-c]quinolin-2(3H)-ylidene) cyanamide] | – | – | – | – | – | ++ (≧30% upto 70%) | +++ (≧70%) |
